The target in test [1] is 5'-AMP-activated protein kinase catalytic subunit alpha-1 (Homo sapiens) (UniProt Q13131). As to the kind of experiment: Inhibition of AMPKa1 labeling at conserved Lys1 (VAVKILNR) in human PBMC at 1 uM.
For test [2], the target named is Mitogen-activated protein kinase 13 (Homo sapiens) (UniProt O15264). As to the kind of experiment: Inhibition of p38d conserved Lys2 (DLKPGNLAVNEDCELK) in human PBMC at 0.1 uM.
The target is the same in test [3]. As to the kind of experiment: Inhibition of p38d conserved Lys2 (DLKPGNLAVNEDCELK) in human PBMC at 1 uM.
For test [4], the target named is Tyrosine-protein kinase Yes (Homo sapiens) (UniProt P07947). As to the kind of experiment: Inhibition of YES activation Loop (QGAKFPIKWTAPEAALYGR) in human PBMC at 0.1 uM.
For test [5], the target named is T1, Serine/threonine-protein kinase LATS1 (Homo sapiens) (UniProt O95835).
T1 sequence (whole entry): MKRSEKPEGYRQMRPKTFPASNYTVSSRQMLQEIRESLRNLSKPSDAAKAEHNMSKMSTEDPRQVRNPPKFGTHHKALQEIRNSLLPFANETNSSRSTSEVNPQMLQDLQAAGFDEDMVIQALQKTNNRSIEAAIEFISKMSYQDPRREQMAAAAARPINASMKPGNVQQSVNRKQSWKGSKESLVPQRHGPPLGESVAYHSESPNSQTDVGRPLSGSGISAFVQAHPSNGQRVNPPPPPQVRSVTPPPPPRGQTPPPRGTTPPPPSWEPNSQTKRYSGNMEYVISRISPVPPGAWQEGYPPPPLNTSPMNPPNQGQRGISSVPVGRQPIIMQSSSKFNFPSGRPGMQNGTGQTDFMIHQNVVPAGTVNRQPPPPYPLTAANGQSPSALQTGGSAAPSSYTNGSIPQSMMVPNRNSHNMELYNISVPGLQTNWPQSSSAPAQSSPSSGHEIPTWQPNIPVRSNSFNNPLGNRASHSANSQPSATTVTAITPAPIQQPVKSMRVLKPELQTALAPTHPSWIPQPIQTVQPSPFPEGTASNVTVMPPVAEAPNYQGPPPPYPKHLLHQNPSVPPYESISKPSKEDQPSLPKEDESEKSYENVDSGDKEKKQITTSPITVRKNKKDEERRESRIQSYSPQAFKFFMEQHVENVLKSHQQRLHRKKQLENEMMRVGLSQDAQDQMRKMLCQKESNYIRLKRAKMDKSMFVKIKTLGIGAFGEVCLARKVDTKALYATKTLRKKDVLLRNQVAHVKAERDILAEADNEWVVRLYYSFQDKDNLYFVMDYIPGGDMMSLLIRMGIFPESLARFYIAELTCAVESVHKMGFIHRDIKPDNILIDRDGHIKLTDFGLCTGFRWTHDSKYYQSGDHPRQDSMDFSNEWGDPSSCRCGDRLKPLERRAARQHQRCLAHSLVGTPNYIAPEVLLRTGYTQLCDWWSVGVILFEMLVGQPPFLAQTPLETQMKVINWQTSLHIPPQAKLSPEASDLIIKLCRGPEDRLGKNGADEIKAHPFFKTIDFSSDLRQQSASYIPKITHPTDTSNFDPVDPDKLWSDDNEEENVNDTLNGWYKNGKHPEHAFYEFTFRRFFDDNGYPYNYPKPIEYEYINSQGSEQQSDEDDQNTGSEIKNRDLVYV
The experiment in a line: Inhibition of LATS1 conserved Lys2 (DIKPDNILIDR) in human PBMC at 1 uM.

Test [6] concerns the target Interleukin-1 receptor-associated kinase 1 (Homo sapiens) (UniProt P51617). The experiment in a line: Inhibition of IRAK1 conserved Lys2 (AIQFLHQDSPSLIHGDIKSSNVLLDER) in human PBMC at 0.1 uM.
Test [7] concerns the target Serine/threonine-protein kinase Nek7 (Homo sapiens) (UniProt Q8TDX7). The experiment in a line: Inhibition of NEK7 conserved Lys1 (AACLLDGVPVALKK) in human PBMC at 0.1 uM.
For test [8], the target named is T1, Serine/threonine-protein kinase LATS1 (Homo sapiens). The experiment in a line: Inhibition of LATS1 conserved Lys1 (ALYATKTLR) in human PBMC at 0.1 uM.
Test [9] in a line: Inhibition of GCK conserved Lys2 (DIKGANLLLTLQGDVK) in human PBMC at 1 uM.
Test [10] has as its target T2, Serine/threonine-protein kinase 4 (Homo sapiens) (UniProt Q13043).
T2 sequence (whole entry): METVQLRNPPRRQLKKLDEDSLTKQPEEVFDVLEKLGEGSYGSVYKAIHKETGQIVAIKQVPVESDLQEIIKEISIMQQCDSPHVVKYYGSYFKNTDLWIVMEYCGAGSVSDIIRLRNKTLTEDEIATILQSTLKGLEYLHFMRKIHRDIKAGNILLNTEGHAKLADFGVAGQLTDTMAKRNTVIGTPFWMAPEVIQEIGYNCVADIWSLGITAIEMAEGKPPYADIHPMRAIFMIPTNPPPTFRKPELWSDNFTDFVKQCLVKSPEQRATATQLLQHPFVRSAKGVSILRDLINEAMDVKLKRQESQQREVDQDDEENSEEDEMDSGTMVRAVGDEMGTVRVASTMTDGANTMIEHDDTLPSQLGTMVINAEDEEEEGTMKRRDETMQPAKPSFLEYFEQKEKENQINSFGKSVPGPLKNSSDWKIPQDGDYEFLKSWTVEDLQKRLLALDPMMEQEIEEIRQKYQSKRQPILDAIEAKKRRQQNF
The experiment in a line: Inhibition of MST1 conserved Lys2 (DIKAGNILLNTEGHAK) in human PBMC at 0.1 uM.

In test [11] the target is Cyclin-dependent kinase 5 (Homo sapiens) (UniProt Q00535). As to the kind of experiment: Inhibition of CDK5 labeling at conserved Lys2 (DLKPQNLLINR) in human PBMC at 1 uM.
For test [12] the target is unchanged. As to the kind of experiment: Inhibition of CDK5 labeling at conserved Lys1 (NRETHEIVALKR) in human PBMC at 0.1 uM.
For test [13], the target named is Phosphatidylinositol 5-phosphate 4-kinase type-2 gamma (Homo sapiens) (UniProt Q8TBX8). The experiment in a line: Inhibition of PIP4K2C ATP binding site (TLVIKEVSSEDIADMHSNLSNYHQYIVK) in human PBMC at 0.1 uM.

SMILES strings stand for the structures.

Sequence of Cyclin-dependent kinase 5 (Homo sapiens) (Q00535 whole entry, looked up): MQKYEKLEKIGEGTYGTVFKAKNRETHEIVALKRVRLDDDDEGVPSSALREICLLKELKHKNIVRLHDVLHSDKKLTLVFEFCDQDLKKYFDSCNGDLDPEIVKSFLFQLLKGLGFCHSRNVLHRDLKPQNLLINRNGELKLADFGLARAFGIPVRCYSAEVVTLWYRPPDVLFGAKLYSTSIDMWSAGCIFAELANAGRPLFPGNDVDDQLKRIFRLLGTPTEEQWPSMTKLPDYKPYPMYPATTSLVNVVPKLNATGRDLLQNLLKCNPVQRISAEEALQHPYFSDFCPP
Sequence of Mitogen-activated protein kinase 13 (Homo sapiens) (O15264 whole entry): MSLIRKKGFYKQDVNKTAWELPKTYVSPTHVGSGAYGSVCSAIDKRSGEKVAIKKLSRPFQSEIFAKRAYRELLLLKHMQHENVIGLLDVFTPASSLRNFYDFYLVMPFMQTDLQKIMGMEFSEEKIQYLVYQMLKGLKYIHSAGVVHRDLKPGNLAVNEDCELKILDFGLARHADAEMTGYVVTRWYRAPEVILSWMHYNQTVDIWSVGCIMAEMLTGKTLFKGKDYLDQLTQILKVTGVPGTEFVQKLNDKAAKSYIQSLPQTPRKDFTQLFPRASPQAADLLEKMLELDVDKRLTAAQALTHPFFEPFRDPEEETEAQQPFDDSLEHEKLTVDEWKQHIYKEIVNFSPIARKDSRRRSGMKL
Sequence of Phosphatidylinositol 5-phosphate 4-kinase type-2 gamma (Homo sapiens) (Q8TBX8 whole entry): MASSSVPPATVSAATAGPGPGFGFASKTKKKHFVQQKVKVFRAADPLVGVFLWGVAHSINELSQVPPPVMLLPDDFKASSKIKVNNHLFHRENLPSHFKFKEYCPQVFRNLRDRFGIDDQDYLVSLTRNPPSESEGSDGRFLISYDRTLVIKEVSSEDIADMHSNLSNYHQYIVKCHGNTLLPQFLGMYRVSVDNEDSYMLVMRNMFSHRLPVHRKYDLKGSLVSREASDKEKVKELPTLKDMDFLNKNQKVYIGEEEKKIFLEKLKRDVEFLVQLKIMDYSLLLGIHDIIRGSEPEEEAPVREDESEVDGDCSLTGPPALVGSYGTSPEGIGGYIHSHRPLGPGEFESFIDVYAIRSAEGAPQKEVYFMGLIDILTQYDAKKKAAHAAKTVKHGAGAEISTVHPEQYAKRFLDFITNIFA
Sequence of Tyrosine-protein kinase Yes (Homo sapiens) (P07947 2-543 limits assumed): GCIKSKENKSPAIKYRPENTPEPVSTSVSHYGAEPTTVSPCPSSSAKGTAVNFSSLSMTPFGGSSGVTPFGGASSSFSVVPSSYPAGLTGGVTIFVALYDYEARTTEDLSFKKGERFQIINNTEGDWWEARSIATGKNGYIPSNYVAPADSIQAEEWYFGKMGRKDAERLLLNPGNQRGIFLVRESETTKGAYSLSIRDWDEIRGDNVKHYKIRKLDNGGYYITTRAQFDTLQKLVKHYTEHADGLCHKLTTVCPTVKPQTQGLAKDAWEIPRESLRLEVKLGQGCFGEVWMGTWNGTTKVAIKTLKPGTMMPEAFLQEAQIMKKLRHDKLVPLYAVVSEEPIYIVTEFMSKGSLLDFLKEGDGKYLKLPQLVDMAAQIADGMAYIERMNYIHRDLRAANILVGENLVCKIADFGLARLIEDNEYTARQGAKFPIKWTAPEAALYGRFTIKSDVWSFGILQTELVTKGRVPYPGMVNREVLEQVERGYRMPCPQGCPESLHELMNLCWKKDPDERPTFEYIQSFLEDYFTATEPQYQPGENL
Sequence of Serine/threonine-protein kinase Nek7 (Homo sapiens) (Q8TDX7 whole entry, looked up): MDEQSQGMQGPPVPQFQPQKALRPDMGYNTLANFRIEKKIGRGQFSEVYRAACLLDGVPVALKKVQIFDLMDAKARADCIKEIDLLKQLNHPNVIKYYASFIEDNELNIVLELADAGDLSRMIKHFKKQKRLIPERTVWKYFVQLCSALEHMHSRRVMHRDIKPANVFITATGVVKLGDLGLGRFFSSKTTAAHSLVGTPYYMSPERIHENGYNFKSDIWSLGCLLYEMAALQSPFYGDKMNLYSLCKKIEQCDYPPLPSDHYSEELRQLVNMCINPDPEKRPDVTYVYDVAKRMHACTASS
Sequence of Interleukin-1 receptor-associated kinase 1 (Homo sapiens) (P51617 whole entry, looked up): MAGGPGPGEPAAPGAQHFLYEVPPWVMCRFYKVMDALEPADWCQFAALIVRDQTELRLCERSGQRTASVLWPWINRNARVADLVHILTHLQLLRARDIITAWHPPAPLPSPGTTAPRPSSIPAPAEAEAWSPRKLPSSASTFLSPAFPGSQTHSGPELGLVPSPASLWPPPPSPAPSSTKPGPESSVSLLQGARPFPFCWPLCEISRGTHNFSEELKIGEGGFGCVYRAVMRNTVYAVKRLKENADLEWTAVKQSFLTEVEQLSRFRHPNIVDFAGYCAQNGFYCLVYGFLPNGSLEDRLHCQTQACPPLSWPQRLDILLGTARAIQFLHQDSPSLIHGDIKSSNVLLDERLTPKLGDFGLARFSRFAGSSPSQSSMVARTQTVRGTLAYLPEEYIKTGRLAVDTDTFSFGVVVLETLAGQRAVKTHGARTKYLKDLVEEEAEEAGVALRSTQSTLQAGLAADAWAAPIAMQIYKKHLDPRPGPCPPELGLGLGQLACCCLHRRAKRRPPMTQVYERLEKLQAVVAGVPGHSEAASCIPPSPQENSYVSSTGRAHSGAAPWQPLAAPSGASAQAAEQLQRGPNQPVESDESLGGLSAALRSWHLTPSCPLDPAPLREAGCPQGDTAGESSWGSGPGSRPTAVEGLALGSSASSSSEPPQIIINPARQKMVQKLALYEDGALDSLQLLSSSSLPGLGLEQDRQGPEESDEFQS
Sequence of 5'-AMP-activated protein kinase catalytic subunit alpha-1 (Homo sapiens) (Q13131 whole entry, looked up): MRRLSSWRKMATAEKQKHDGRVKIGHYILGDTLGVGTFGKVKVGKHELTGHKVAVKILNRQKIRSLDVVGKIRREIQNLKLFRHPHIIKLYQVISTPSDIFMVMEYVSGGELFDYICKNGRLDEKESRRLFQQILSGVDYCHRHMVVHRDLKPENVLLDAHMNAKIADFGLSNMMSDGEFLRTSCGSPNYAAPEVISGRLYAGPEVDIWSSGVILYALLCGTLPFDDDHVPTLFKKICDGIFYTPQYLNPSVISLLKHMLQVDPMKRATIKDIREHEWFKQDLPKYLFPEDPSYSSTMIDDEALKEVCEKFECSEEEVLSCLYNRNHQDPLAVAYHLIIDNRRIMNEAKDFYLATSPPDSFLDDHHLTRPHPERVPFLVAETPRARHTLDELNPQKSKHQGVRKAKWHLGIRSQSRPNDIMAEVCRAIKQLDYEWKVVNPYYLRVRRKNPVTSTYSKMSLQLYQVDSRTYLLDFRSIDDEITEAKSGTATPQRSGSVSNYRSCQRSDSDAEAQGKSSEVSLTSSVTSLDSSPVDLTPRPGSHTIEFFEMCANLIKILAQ

Take `CC(C)n1cc(-c2cc(-c3ccc(CN4CCOCC4)cc3)cnc2N)nn1`: the inhibition in [1] was 17.3%; in test [2], 26.4%; in test [3], 14%; in test [4], -4.4%; in test [5], 30.9%; in [6] it was 22.7%. The inhibition in test [7] is 7.6%; in test [8] it was 23.1%; in [9], 26.2%; in test [10] it was 1.3%; in test [11], 8.9%; in test [12] it was -1.1%. In addition, the inhibition in [13] was -8.1%.

What is called inhibition is the change of the read-out against control, counted positive when it falls.

The values above are taken from ChEMBL document CHEMBL4043168, “The design and SAR of a novel series of 2-aminopyridine based LRRK2 inhibitors” (Bioorg Med Chem Lett, 2017).
